Measurements reported in US4315026A, “Alkylpolyoxysulfinyl and alkylpolythiosulfinyl derivatives of carbamate esters” (priority 1980, dated 1982).
Like-named read-outs stand apart in the source and are kept apart here.

What was measured:
Assay type in all cases: in vivo
Swiss white mice = assay: Mammalian toxicity, oral, Swiss white mice (LD50); conditions: propylene glycol carrier
Protocol: (§1) For mice toxicity, the compound was dissolved in propyleneglycol or corn oil as a carrier and all compounds were tested at the level up to 1,000 mg/kg. All of the above noted compounds tested were lower in toxicity as compared with the parent compounds.
(§2) Mammalian toxicity was determined against Swiss white mice.

[1] = Mammalian toxicity, oral, Swiss white mice (LD50); conditions: mouse, in vivo, propylene glycol carrier
Protocol: as §1, §2

[2] = test system: house flies, Musca domestica; assay: whole plant or invertebrate; conditions: read-out: House flies LD50
Protocol: In another series of tests, stock 1% concentrated solutions of each of the test compounds of Table I below, and of the commercial related carbamate ester insecticides methomyl, carbofuran and oxamyl, were made in acetone, and such solutions were diluted with acetone to a concentration of 0.001-0.8%. House flies were treated topically on the notum by 1 μl of each of the diluted acetone solutions and percent mortality was counted 24 hours after application.

[3] = topical on the notum, 1 μl of 0.001-0.8% acetone solutions, 24 hours, 60° F

3-Methylphenyl N-(2-phenyl-1,3-dioxane-5-ylmethoxysulfinyl)-N-methylcarbamate [XVIII]
Mice LD50 (Swiss white mice): > 1,000 mg/kg

CSC(=NOC(=O)N(C)S(=O)OCC12OCC3OC(C)(C)OC3C1OC(C)(C)O2)C(=O)N(C)C (stereo not drawn) [XXXIV, S-Methyl N-(2,3,4,5-Di-O-isopropylidene-1-α-O-fructopyranosylsulfinyl)-N-methylcarbamoyloxy-2-(N',N'-dimethylamino)-2-oxoethanimidothioate]
LD50 [1]: 44 mg/kg
LD50 [2, 3]: 20 mg/kg

CSC(=NOC(=O)N(C)S(=O)OC1C(C2COC(C)(C)O2)OC2OC(C)(C)OC21)C(=O)N(C)C (stereo not drawn) [XXXV, S-Methyl N-(1,2,5,6-di-O-isopropylidene-3-O-glucofuranosylsulfinyl) N-methylcarbamoyloxy-2-(N',N'-dimethylamino)-2-oxoethanimidothioate]
LD50 [1]: 25 to 50 mg/kg
LD50 [2, 3]: 26.5 mg/kg

CNC(=O)Oc1cccc2c1OC(C)(C)C2 [carbofuran, reference compound]
LD50 [1]: 2 mg/kg
LD50 ([2]; topical, 24 h): 6.7 mg/kg

CNC(=O)ON=C(SC)C(=O)N(C)C [oxamyl, reference compound]
LD50 [1]: 3.7 mg/kg
LD50 [2, 3]: 3.6 mg/kg
